In patent US10160767B2 (Institute of Pharmacology and Toxicology Academy of …, priority 2014, dated 2018):
Counter-ions that a name gives are not always drawn.

Assays:
[1] = system: multi-drug resistant tumor cell line MES-SA; assay: Inhibition of drug-resistant tumor cell line, Cell Titer-Glo cell viability; therapeutic index against MRC5 cells; format: cell-based; details: Homo sapiens, 72 h
Experimental: The activity of example compounds to multi-drug resistant tumor cell line MES-SA was evaluated.
(§1) Experimental materials: DMEM high-glucose cell culture media (Hyclone Company), fetal calf serum (FBS) (Gibco Company), penicillin and streptomycin were purchased from North China Pharmaceutical Co., Ltd, phosphate buffer saline (PBS) was purchased from Gibco Company, Cell Titer-Glo® cell viability detection reagent was purchased from Promega Company, pancreatin and dimethylsulfoxide (DMSO) were products of Sigma Company. MES-SA cell line (human uterine sarcoma cell line) was purchased from ATCC. MRC5 cell (human embryonic lung fibroblast) was purchased from ATCC.
(§2) The cells were inoculated on a 96-well plate with white wall and penetrative bottom (Costar) in amount of 5000 cells per well, cultured at condition of 37° C., 5% CO2 for 24 h. The compounds to be tested were dissolved with DMSO and diluted to 100 mM, to obtain mother liquids of the compounds.
(§3) DMEM culture solution containing 2% FBS was used to diluted the compounds, in which concentration gradients were 3, and concentration range was 100 μM to 0.046 μM. The compounds in various dilution degrees were added to the cultured cells on the 96-well plate, 100 μl per well. Culture was performed at 37° C., CO2 for 72 h, supernatant was discarded, and cell viability detection test was performed.
(§4) AfterCell Titer-Glo® reaction buffer solution was mixed with isometric substrate, the mixture was added to 96-well plate, 100 μl per well. Cell lysis was induced by horizontally shaking for 4 min. Reaction signal was stabilized by balancing at room temperature for 15 min. Chemiluminescence units in each well of the 96-well plate were detected by using chemiluminescence detector.
Inhibition rates at different dilution degrees of each compound were calculated according to chemiluminescence value of each well, and Origin 8.0 software was used for S-type curve fitting of each compound, and for calculating EC50 value. The ratio of EC50 value of compound for MRC5 cell to EC50 value of compound for MES-SA cell was used as therapeutic index for the compound.

[2] = system: tumor cell A549; assay: Tumor cell inhibition, Cell Titer-Glo cell viability; format: cell-based; details: Homo sapiens, A549 cells, 72 h
Experimental: The activities of example compounds to tumor cell A549 were evaluated.
as §1, with “A549” for “MES-SA”, “lung adenocarcinoma” for “uterine sarcoma”, “ATCC.” for “ATCC. MRC5 cell (human embryonic lung fibroblast) was purchased from ATCC.”
as §2
as §3, with “3 nM.” for “0.046 μM.”
as §4
Inhibition rates at different dilution degrees of each compound were calculated according to chemiluminescence value of each well, and Origin 8.0 software was used for S-type curve fitting of each compound, and for calculating EC50 value.

[3] = Solubility test (Chinese Pharmacopoeia 2010, Part II); format: physicochemical; details: water, thermodynamic from solid

IC50 [2] | melting point | solubility [3] | Structure (SMILES) | IC50 [1]
7.4 µM | – | – | CO[C@H]1C[C@@H]2CC[C@@H](C)[C@@](O)(O2)C(=O)C(=O)N2CCCC[C@H]2C(=O)O[C@H]([C@H](C)C[C@@H]2CC[C@@H](OC(=O)C[n+]3csc(C)c3C)[C@H](OC)C2)CC(=O)[C@H](C)/C=C(\C)[C@@H](O)[C@@H](OC)C(=O)[C@H](C)C[C@H](C)/C=C/C=C/C=C/1C [Example 5, 42-O-carbonylmethyl-(4,5-dimethyl-thiazole bromide salt-3-yl)-rapamycin] | < 0.046 µM
52.7 µM | 138 to 140 °C | – | CO[C@H]1C[C@@H]2CC[C@@H](C)[C@@](O)(O2)C(=O)C(=O)N2CCCC[C@H]2C(=O)O[C@H]([C@H](C)C[C@@H]2CC[C@@H](O)[C@H](OC)C2)CC(=O)[C@H](C)/C=C(\C)[C@@H](OC(=O)C[n+]2cccc(C)c2)[C@@H](OC)C(=O)[C@H](C)C[C@H](C)/C=C/C=C/C=C/1C.[Br-] [Example 15, 31-O-carbonylmethyl-(3-methyl-pyridine bromide salt-1-yl)-rapamycin] | < 0.046 µM
46.7 µM | 140 to 142 °C | 85 mg/mL | CO[C@H]1C[C@@H]2CC[C@@H](C)[C@@](O)(O2)C(=O)C(=O)N2CCCC[C@H]2C(=O)O[C@H]([C@H](C)C[C@@H]2CC[C@@H](OC(=O)C[n+]3ccccc3)[C@H](OC)C2)CC(=O)[C@H](C)/C=C(\C)[C@@H](OC(=O)C[n+]2ccccc2)[C@@H](OC)C(=O)[C@H](C)C[C@H](C)/C=C/C=C/C=C/1C.[Br-].[Br-] [Example 7, 31,42-O-carbonylmethyl-(pyridine bromide salt-1-yl)-rapamycin] | < 0.046 µM
51.5 µM | 146 to 148 °C | – | CO[C@H]1C[C@@H]2CC[C@@H](C)[C@@](O)(O2)C(=O)C(=O)N2CCCC[C@H]2C(=O)O[C@H]([C@H](C)C[C@@H]2CC[C@@H](OC(=O)C[n+]3cccc(O)c3)[C@H](OC)C2)CC(=O)[C@H](C)/C=C(\C)[C@@H](O)[C@@H](OC)C(=O)[C@H](C)C[C@H](C)/C=C/C=C/C=C/1C.[Br-] [Example 12, 42-O-carbonylmethyl-(3-hydroxy-pyridine bromide salt-1-yl)-rapamycin] | < 0.046 µM
52.3 µM | – | – | CO[C@H]1C[C@@H]2CC[C@@H](C)[C@@](O)(O2)C(=O)C(=O)N2CCCC[C@H]2C(=O)O[C@H]([C@H](C)C[C@@H]2CC[C@@H](O)[C@H](OC)C2)CC(=O)[C@H](C)/C=C(\C)[C@@H](OC(=O)C[n+]2csc(C)c2C)[C@@H](OC)C(=O)[C@H](C)C[C@H](C)/C=C/C=C/C=C/1C [Example 6, 31-O-carbonylmethyl-(4,5-dimethyl-thiazole bromide salt-3-yl)-rapamycin] | < 0.046 µM
19.3 µM | 130 to 133 °C | – | CO[C@H]1C[C@@H]2CC[C@@H](C)[C@@](O)(O2)C(=O)C(=O)N2CCCC[C@H]2C(=O)O[C@H]([C@H](C)C[C@@H]2CC[C@@H](OC(=O)C[n+]3cscc3C)[C@H](OC)C2)CC(=O)[C@H](C)/C=C(\C)[C@@H](O)[C@@H](OC)C(=O)[C@H](C)C[C@H](C)/C=C/C=C/C=C/1C.[Br-] [Example 2, 42-O-carbonylmethyl-(4-methyl-thiazole bromide salt-3-yl)-rapamycin] | < 0.046 µM
57.7 µM | 140 to 142 °C | – | CO[C@H]1C[C@@H]2CC[C@@H](C)[C@@](O)(O2)C(=O)C(=O)N2CCCC[C@H]2C(=O)O[C@H]([C@H](C)C[C@@H]2CC[C@@H](O)[C@H](OC)C2)CC(=O)[C@H](C)/C=C(\C)[C@@H](OC(=O)C[n+]2ccccc2)[C@@H](OC)C(=O)[C@H](C)C[C@H](C)/C=C/C=C/C=C/1C.[Br-] [Example 16, 31-O-carbonylmethyl-(pyridine bromide salt-1-yl)-rapamycin] | < 0.046 µM
44 µM | 181 to 183 °C | 120 mg/mL | CO[C@H]1C[C@@H]2CC[C@@H](C)[C@@](O)(O2)C(=O)C(=O)N2CCCC[C@H]2C(=O)O[C@H]([C@H](C)C[C@@H]2CC[C@@H](OC(=O)C[n+]3ccc(C)cc3)[C@H](OC)C2)CC(=O)[C@H](C)/C=C(\C)[C@@H](OC(=O)C[n+]2ccc(C)cc2)[C@@H](OC)C(=O)[C@H](C)C[C@H](C)/C=C/C=C/C=C/1C.[Br-].[Br-] [Example 14, 31,42-O-carbonylmethyl-(4-methyl-pyridine bromide salt-1-yl)-rapamycin] | < 0.046 µM
3.04 µM | 130 to 132 °C | – | CO[C@H]1C[C@@H]2CC[C@@H](C)[C@@](O)(O2)C(=O)C(=O)N2CCCC[C@H]2C(=O)O[C@H]([C@H](C)C[C@@H]2CC[C@@H](O)[C@H](OC)C2)CC(=O)[C@H](C)/C=C(\C)[C@@H](OC(=O)C[n+]2cscc2C)[C@@H](OC)C(=O)[C@H](C)C[C@H](C)/C=C/C=C/C=C/1C.[Br-] [Example 3, 31-O-carbonylmethyl-(4-methyl-thiazole bromide salt-3-yl)-rapamycin] | < 0.046 µM
46 µM | 120 to 124 °C | 0.1 mg/mL | CO[C@H]1C[C@@H]2CC[C@@H](C)[C@@](O)(O2)C(=O)C(=O)N2CCCC[C@H]2C(=O)O[C@H]([C@H](C)C[C@@H]2CC[C@@H](OC(=O)C[n+]3cccc(O)c3)[C@H](OC)C2)CC(=O)[C@H](C)/C=C(\C)[C@@H](OC(=O)C[n+]2cccc(O)c2)[C@@H](OC)C(=O)[C@H](C)C[C@H](C)/C=C/C=C/C=C/1C.[Br-].[Br-] [Example 8, 31,42-O-carbonylmethyl-(3-hydroxy-pyridine bromide salt-1-yl)-rapamycin] | < 0.046 µM
25.1 µM | 159 to 162 °C | 47 mg/mL | CO[C@H]1C[C@@H]2CC[C@@H](C)[C@@](O)(O2)C(=O)C(=O)N2CCCC[C@H]2C(=O)O[C@H]([C@H](C)C[C@@H]2CC[C@@H](OC(=O)C[n+]3cccc(C)c3)[C@H](OC)C2)CC(=O)[C@H](C)/C=C(\C)[C@@H](OC(=O)C[n+]2cccc(C)c2)[C@@H](OC)C(=O)[C@H](C)C[C@H](C)/C=C/C=C/C=C/1C.[Br-].[Br-] [Example 9, 31,42-O-carbonylmethyl-(3-methyl-pyridine bromide salt-1-yl)-rapamycin] | 7.21 µM
6.23 µM | – | 100 mg/mL | CO[C@H]1C[C@@H]2CC[C@@H](C)[C@@](O)(O2)C(=O)C(=O)N2CCCC[C@H]2C(=O)O[C@H]([C@H](C)C[C@@H]2CC[C@@H](OC(=O)C[n+]3csc(C)c3C)[C@H](OC)C2)CC(=O)[C@H](C)/C=C(\C)[C@@H](OC(=O)C[n+]2csc(C)c2C)[C@@H](OC)C(=O)[C@H](C)C[C@H](C)/C=C/C=C/C=C/1C.[Br-].[Br-] [Example 4, 31,42-O-carbonylmethyl-(4,5-dimethyl-thiazole bromide salt-3-yl)-rapamycin] | < 0.046 µM
66.3 µM | 135 to 137 °C | – | CO[C@H]1C[C@@H]2CC[C@@H](C)[C@@](O)(O2)C(=O)C(=O)N2CCCC[C@H]2C(=O)O[C@H]([C@H](C)C[C@@H]2CC[C@@H](OC(=O)C[n+]3ccccc3)[C@H](OC)C2)CC(=O)[C@H](C)/C=C(\C)[C@@H](O)[C@@H](OC)C(=O)[C@H](C)C[C@H](C)/C=C/C=C/C=C/1C.[Br-] [Example 10, 42-O-carbonylmethyl-(pyridine bromide salt-1-yl)-rapamycin] | 10.9 µM
